According to US11261230B2, “Synthetic somatostatin receptor ligands” (TEL HASHOMER MEDICAL RESEARCH INFRASTRUCTURE AND SERVICES …, priority 2014, dated 2022):
*1 amine or outer side, *2 acyl side, *3 side chain or, on linkers, in order; H or OH if unused. Where a SMILES comes first, the peptide text is derived from it. Bridges are numbered along the chain shown (N, C = ends). [ ]: non-standard residue; d: D form. The star is where a group is joined. FITC = O=C1OC2(c3ccc(O)cc3Oc3cc(O)ccc32)c2ccc(NC(=S)*)cc21; N(2-mercaptoethyl)Gly = O=C(CN(CCS[*:3])[*:1])[*:2]; GABA = NCCCC(=O)O

Experiments:
PANC-1 tumors = assay: In vivo biodistribution in PANC-1 xenograft mice, Maestro fluorescence imaging of harvested tissue; details: 1 day after administration, tissues as named in the value
Protocol: Five different pharmaceutical compositions were prepared, each by dissolving 1 mg of a different Somatostatin receptor ligand in 1 liter PBS.
Solid human-derived tumors were induced in 15 nude mice by subcutaneous injection of a suspension containing ˜5□10^5 human cancer cells (PANC-1) into the flank area of the mice.
2-3 weeks after the injection of the cancer cells, it was observed that the mice developed solid tumors with diameters of approximately 5-10 mm.
0.3 ml of each one of the five pharmaceutical compositions were systemically administered to three of the fifteen xenograft mice by injection into the tail vein using a 30 G needle.
The fifteen mice were sacrificed and from the bodies tumors, pancreas, spleen, kidney and liver were harvested.
The fluorescence of the harvested tissue was determined using the Maestro™ in vivo fluorescence imaging system (Cambridge Research & Instrumentation, Inc., Woburn, Mass., USA).

BON1 tumor = assay: In vivo bio-distribution by fluorescence imaging in mice bearing BON1 tumor; parameters: species or system nude mice; details: 10 mg/kg IV
Protocol: Pharmacokinetics and bio-distribution of some of the compounds was studied in mouse xenograft models for human cancer. Four pharmaceutical compositions according to the teachings herein, each comprising a single compound according to the teachings herein, were administered intravenously (IV) into lateral tail vein of nude mice bearing BON1 or H116 tumors. Animals were sacrificed at 1, 3, 6 and 24 hours after injection and tumor and normal tissues were excised. Tissue bio-distribution of the compounds were studied using fluorescence imaging techniques.
Experiments were started 7-10 days after the injection, when the tumor diameter was approximately 5-10 mm. […]
Whole-body fluorescence imaging, low-magnification fluorescence microscopy and cellular level fluorescence microscopy methods were used to study tissue biodistribution of the compounds. For these purposes, SZX-12 fluorescence microscope (Olympus, Japan), IX81 inverted fluorescence microscope (Olympus, Japan) equipped with appropriate filter-cubes and digital color camera (DP71, Olympus) were used. Additionally, whole-body fluorescence imaging was performed by WB imaging system (Prizmatix, Israel). Quantitative spectrally-resolved fluorescence imaging was carried out using a spectral imaging (SI) system (SD300, Applied Spectral Imaging, Migdal Ha'Emek, Israel). […]

human SSTR4 = target: T1, human SSTR4 (Homo sapiens, UniProt P31391); assay: Binding to transfected HEK cells expressing a single SSTRx subtype, FACS
T1 construct: expressed in transfected cells; host or cells: HEK-293, transient transfection, pcDNA 3.1
Protocol: (§1) The affinity of compounds 1-16 to each of the five SSTRx was tested using an in vitro model of transfected cell lines (HEK—human embryonic kidney), each expressing a single human SSTRx subtype. Biological activity assessment of the compounds to define a specific affinity to each subtype was performed by FACS and fluorescence imaging methods.
(§2) Human SSTRx were expressed in the cells by transient transfection. Each SSTR was expressed separately, creating five different cell lines using human gene transcript.
(§3) The transfection process is illustrated in FIG. 1. The transient transfection process was carried out before each experiment. Briefly, HEK cells were cultured in standard cell growth conditions. For testing, the cells were transferred into 96-well plates. The tested compounds were dissolved in DMSO and then diluted in a buffer solution to a final DMSO concentration of 5% as a composition according to the teachings herein. Various amounts of the thus-prepared compositions were added to the cells in medium in the 96-well plates and allowed to incubate for between 1 and 24 hours. Binding was determined using fluorescent microscopy and FACS.
(§4) Qualitative assessment of binding efficiency was done by visual inspection and digital photography using an inverted fluorescent microscope. Quantitative assessment was done using FACS.
(§5) HEK-293 cells (human embryonic kidney) were grown in Dulbecco's modified Eagle's medium (DMEM) supplemented with 4 mM glutamine, 10% fetal bovine serum (FBS) and 100 units/ml penicillin/streptomycin at 37° C./5% carbon dioxide. One day prior to transfection, the cells were trypsinized, counted and plated at a density of 3×10^5 per 35 mm diameter dish. Until 70% confluency, cells were transiently transfected with the pcDNA 3.1 vector bearing the coding region for the human SSTR human somatostatin receptor subtypes SSTR1-SSTR5. Transfections were carried out with JetPei transfection reagent (Polyplus-transfection, NY, USA) according to the manufacturer's recommendation. Briefly, 2 micrograms of plasmid DNA and 6 microliter of JetPei transfection reagent were used for each transfection. Each of the components were resuspended in 100 microliter of 150 mM NaCl, mixed and incubated for 25 minutes at room temperature and after incubation added to cells.
(§6) Cells were then seeded in a 96-well flat-bottom microplate (Costar, Corning, N.Y.) at a concentration of 5×10^4 cells/well. Twelve hours later, the supernatant was removed and replaced with fresh DMEM containing various (in the nM range) concentrations of tested compounds 1-16. The cells were incubated for additional time intervals ranging from 0.5-24 hr. At the end of the incubation period, supernatant was discarded and the cells were washed twice with cold PBS. The plates were examined using IX81 inverted microscope (Olympus, Japan) equipped with […] digital camera. Additionally, a FACS assay was used for quantitative analysis.
(§7) Quantitative assessment of binding affinity of Compounds 1-16 was performed by FACS in the transfected HEK cell model.
(§8) Quantitatively, specific binding affinity was assessed as the percentage of double stained [(GR=green and red indicating transfection)/(R is total red) less (G is green indicating unspecific binding)]: specific binding affinity=[GR/R−G]

human SSTR5 = target: T2, human SSTR5 (Homo sapiens, UniProt P35346); assay: Binding to transfected HEK cells expressing a single SSTRx subtype, FACS and fluorescence microscopy
T2 construct: expressed in transfected cells; host or cells: HEK-293, transient transfection, pcDNA 3.1
Protocol: as §1, §2, §3, §4, §5, §6, §7, §8

SSTR1-SSTR5 = details: background statement; cited from earlier work
[1] = FACS, transfected HEK, specific binding affinity = percentage double stained [GR/R−G], 0 = no binding detected
[2] = Table 2 normalized according to the highest binding affinity of that compound
[3] = Table 2 normalized to Compound 1 (=100)

T2 sequence (P35346 whole entry): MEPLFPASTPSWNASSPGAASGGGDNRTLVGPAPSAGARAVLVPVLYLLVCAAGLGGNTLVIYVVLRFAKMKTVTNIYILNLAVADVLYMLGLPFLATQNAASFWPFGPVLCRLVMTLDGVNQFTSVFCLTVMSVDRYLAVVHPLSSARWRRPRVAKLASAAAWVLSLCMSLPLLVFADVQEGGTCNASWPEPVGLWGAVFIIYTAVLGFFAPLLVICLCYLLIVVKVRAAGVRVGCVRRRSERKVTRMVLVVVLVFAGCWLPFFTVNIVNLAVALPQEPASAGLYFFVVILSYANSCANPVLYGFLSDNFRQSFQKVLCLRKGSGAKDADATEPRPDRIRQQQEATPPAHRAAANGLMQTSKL
T1 sequence (P31391 whole entry): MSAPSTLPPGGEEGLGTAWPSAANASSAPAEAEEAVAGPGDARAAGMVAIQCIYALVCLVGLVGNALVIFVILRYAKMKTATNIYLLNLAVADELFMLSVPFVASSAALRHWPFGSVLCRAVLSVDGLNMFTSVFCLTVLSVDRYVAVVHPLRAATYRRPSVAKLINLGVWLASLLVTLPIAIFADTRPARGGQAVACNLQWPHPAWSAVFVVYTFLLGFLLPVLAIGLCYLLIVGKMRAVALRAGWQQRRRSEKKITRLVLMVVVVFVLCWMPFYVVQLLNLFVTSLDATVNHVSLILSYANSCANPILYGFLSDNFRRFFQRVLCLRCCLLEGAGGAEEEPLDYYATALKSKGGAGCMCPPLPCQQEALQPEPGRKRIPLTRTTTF

## C[C@@H](O)[C@@H]1NC(=O)[C@H](CCCCN)NC(=O)[C@@H](Cc2c[nH]c3ccccc23)NC(=O)[C@H](Cc2c[nH]c3ccccc23)NC(=O)[C@H](Cc2ccccc2)NC(=O)[C@@H](NC(=O)[C@@H](Cc2ccccc2)NC(=O)CCCNC(=S)Nc2ccc3c(c2)C(=O)OC32c3ccc(O)cc3Oc3cc(O)ccc32)CSSCCN(CC(N)=O)C(=O)[C@H](Cc2ccccc2)NC1=O [Compound 1, FITC-GABA-DPhe-Cys*-Phe-Trp-DTrp-Lys-Thr-Phe-GlyS2*-NH2, reference compound]
PANC-1 tumors
  Intensity in healthy tissue (in words): undetectable in liver tissue

## C[C@@H](O)[C@@H]1NC(=O)[C@H](CCCCN)NC(=O)[C@@H](Cc2c[nH]c3ccccc23)NC(=O)[C@H](Cc2ccccc2)NC(=O)[C@@H](NC(=O)[C@H](CCCNC(=N)N)NC(=O)[C@@H](Cc2ccccc2)NC(=O)CCCNC(=S)Nc2ccc3c(c2)C(=O)OC32c3ccc(O)cc3Oc3cc(O)ccc32)CSSCCN(CC(N)=O)C(=O)[C@H](Cc2ccccc2)NC1=O [Compound 2, FITC-GABA-D-Phe-Arg-Cys-Phe-D-Trp-Lys-Thr-Phe-GlyS2] ({FITC-GABA}-[dF]RCF[dW]KTF[N(2-mercaptoethyl)Gly]-NH2; disulfide 3-9)
PANC-1 tumors
  Intensity in healthy tissue (in words): undetectable in spleen, kidney and liver tissue

## C[C@@H](O)[C@@H]1NC(=O)[C@H](CCCN)NC(=O)[C@@H](Cc2c[nH]c3ccccc23)NC(=O)[C@H](Cc2c[nH]c3ccccc23)NC(=O)[C@H](Cc2ccccc2)NC(=O)[C@@H](NC(=O)[C@@H](Cc2ccccc2)NC(=O)CCCNC(=S)Nc2ccc3c(c2)C(=O)OC32c3ccc(O)cc3Oc3cc(O)ccc32)CSSCCN(CC(N)=O)C(=O)[C@H](Cc2ccccc2)NC1=O [Compound 3, FITC-GABA-D-Phe-Cys-Phe-Trp-D-Trp-Orn-Thr-Phe-GlyS2]
PANC-1 tumors
  Intensity in healthy tissue (in words): undetectable in spleen, kidney and liver tissue
BON1 tumor; spleen, pancreas and tumor, FIG. 10
  Time of maximal fluorescence signal in all tissues after administration: 6 h

## C[C@@H](O)[C@@H]1NC(=O)[C@H](CCCCN)NC(=O)[C@@H](Cc2c[nH]c3ccccc23)NC(=O)[C@H](Cc2c[nH]c3ccccc23)NC(=O)[C@H](Cc2ccc(O)cc2)NC(=O)[C@@H](NC(=O)[C@@H](Cc2ccccc2)NC(=O)CCCNC(=S)Nc2ccc3c(c2)C(=O)OC32c3ccc(O)cc3Oc3cc(O)ccc32)CSSCCN(CC(N)=O)C(=O)[C@H](Cc2ccccc2)NC1=O [Compound 4, FITC-GABA-D-Phe-Cys-Tyr-Trp-D-Trp-Lys-Thr-Phe-GlyS2] ({FITC-GABA}-[dF]CYW[dW]KTF[N(2-mercaptoethyl)Gly]-NH2; disulfide 2-9)
BON1 tumor; fluorescence microscopy, 24 hrs after administration
  Pattern of bio-distribution, order of fluorescence in tissue samples: tumor>spleen>pancreas>kidney>liver

## CC(=O)NCCCC[C@@H]1NC(=O)[C@@H](Cc2c[nH]c3ccccc23)NC(=O)[C@H](Cc2c[nH]c3ccccc23)NC(=O)[C@H](Cc2ccccc2)NC(=O)[C@@H](NC(=O)[C@@H](Cc2ccccc2)NC(=O)CCCNC(=S)Nc2ccc3c(c2)C(=O)OC32c3ccc(O)cc3Oc3cc(O)ccc32)CSSCCN(CC(N)=O)C(=O)[C@H](Cc2ccccc2)NC(=O)[C@H]([C@@H](C)O)NC1=O [Compound 14, FITC-GABA-D-Phe-Cys-Phe-Trp-D-Trp-LysAc-Thr-Phe-GlyS2]
Human SSTR4; [1]
  Relative binding affinity SSTR4: 3
Human SSTR4; [2]
  Adjusted binding affinity SSTR4: 1
Human SSTR4; [3]
  Binding affinity to SSTR4 relative to Compound 1: 13
Human SSTR5; [1]
  Relative binding affinity SSTR5: 2
Human SSTR5; [2]
  Adjusted binding affinity SSTR5: 0.67
Human SSTR5; [3]
  Binding affinity to SSTR5 relative to Compound 1: 7

## CC(C)[C@@H]1NC(=O)[C@H](CCCCN)NC(=O)[C@@H](Cc2c[nH]c3ccccc23)NC(=O)[C@H](Cc2ccc(O)cc2)NC(=O)[C@@H](NC(=O)[C@H](N)Cc2ccc3ccccc3c2)CSSC[C@@H](C(=O)N[C@H](C(N)=O)[C@@H](C)O)NC1=O [Lanreotide, Napht-Cys*-Tyr-Trp-Lys-Val-Cys*-Thr]
SSTR1-SSTR5
  Affinity of binding to the SSTRx (in words): high-affinity binding to SSTR2, moderate affinity binding to SSTRR3 and SSTR5, and almost no affinity binding to SSTR1 and SSTR4

## DPhe-Cys*-Phe-DTrp-Lys-Thr-Cys*-Throl [Octreotide]
SSTR1-SSTR5
  Affinity of binding to the SSTRx (in words): high-affinity binding to SSTR2, moderate affinity binding to SSTRR3 and SSTR5, and almost no affinity binding to SSTR1 and SSTR4
